# Experiments:
# HBV = HBV genomic replication assays (Table 2); format: cell-based, Hepatitis B virus; conditions: class by active concentration
# Procedure: Huh7 cells were maintained in Dulbecco's modified Eagle's medium with 10% fetal bovine serum at 37° C. in 5% CO2. Cells were seeded into 60 mm dishes and transfected at 70% confluency with 2.6 μg of plasmids using TransIT-LT1 (Mirus, Inc.). Test compounds were added the morning following transfection at 10 or 50 μM, and fresh medium containing the compounds was provided every 1-2 days. Four or five days post-transfection HBV cores were isolated by lysis of the cells in 10 mM Tris pH 7.5, 1 mM EDTA, 0.25% NP40, 50 mM NaCl, and 8% sucrose followed by sedimentation through a 30% sucrose cushion as described (Travis, et al., 1998). Viral DNAs were isolated from cytoplasmic core particle preparations by proteinase K digestion followed by phenol/chloroform extraction as described (Gong et al., 2001). Duplicate aliquots of the nucleic acids were treated with 2 U E. coli DNAse-free RNAseH (Invitrogen) at 37° C. for 30 min. or were mock treated. The nucleic acid samples were resolved by electrophoresis on 1.2% agarose gels and detected by Southern blotting with ^32P-labeled HBV DNA as a probe. […]
# [1] = biological target: T1, chimeric HBV:HIV RNAseH HHC1 (Hepatitis B virus genotype D subtype ayw, UniProt P03156, DELINS787-795[…]/INS679M); experiment: Oligonucleotide-directed RNAseH cleavage assay, chimeric HHC1; format: biochemical; conditions: 10 μM; ± standard deviation, 3 to 7 replicates
# T1 construct: HHC1 is an HRHPL derivative; made in house; host or cells: E. coli BL21 codon+
# T1 sequence (P03156 680-786, added parts left off, stated change not applied): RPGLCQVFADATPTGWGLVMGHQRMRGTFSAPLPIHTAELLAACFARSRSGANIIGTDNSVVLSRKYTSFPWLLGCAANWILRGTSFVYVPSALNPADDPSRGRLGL
# From the text: pCMV-HBV-LE-(CMV-HBV) is an HBV over-length genomic expression vector containing 1.2 copies of the HBV(adw2) genome (Genbank X02763.1) downstream of the CMV promoter cloned into pBS (Promega). Surface protein expression from this vector is ablated by mutating the preS and S open reading frames. pCMV-HBV(genotype D) is an analogous HBV genomic expression construct and was a gift from Dr. Shuping Tong (Brown University). For bacterial expression, codon-optimized cDNA sequences for HRHPL (genotypes A, B, C, D, and H), and noncodon-optimized sequences for HHC1 and HHC2 were cloned by gene synthesis (Genscript) between the NcoI and EcoRI sites into pTrcHis2B (Invitrogen) with a C-terminal hexahistidine tag. HRHPL contains HBV genotype D (Genbank V01460) polymerase residues 684-845. HHC1 is an HRHPL derivative in which HBV polymerase residues 800-808 were replaced with HIV residues corresponding to the RNAseH helix D ([…]; SEQ ID NO:6). HHC2 is an HRHPL derivative in which HBV polymerase residues 800-845 were replaced with HIV residues corresponding to the RNAseH helix D to the C-terminus ([…]; SEQ ID NO:7). The human RNAseH1 gene (NP_002927.2) was cloned with an N-terminal hexahistidine-tag between the BamHI and XhoI sites of pRsetB (Invitrogen) by gene synthesis.
# (§1) For the oligonucleotide-directed RNAseH cleavage assay (Gong et al., 2001), 6 μl protein extract (typical protein concentration 2.8 mg/ml) was mixed with 0.5 μg internally ^32P-labeled DRF+ RNA (nucleotides 2401-2605 of the duck HBV genome plus 60 nucleotides of flanking sequences from pBluescript) and 3 μg oligonucleotide D2507- or its corresponding negative control D2526+ on ice in 20 μl under the conditions in Table 1. Some reactions in FIG. 5 employed oligonucleotide D2543M-Sal or its D2453+ negative control as indicated. The reactions were incubated at 42° C. for 90 min. and terminated by addition of Laemmli protein loading buffer and boiling. The samples were resolved by 12% SDS-PAGE, the gels were stained with Coomassie blue to monitor protein loading, and labeled RNA was detected by autoradiography. Candidate inhibitors were dissolved in DMSO and added at the indicated concentrations during assembly of the reactions. Control reactions lacking the compounds contained DMSO as a vehicle control. The RNAseH autoradiograms were scanned and quantified with ImageJ. The oligonucleotides were: D2526+([…]; SEQ ID NO:8), D2507-([…]; SEQ ID NO:9), D2453+([…]; SEQ ID NO:10), and D2543M-Sal ([…]; SEQ ID NO:11).
# HBV genotype H RNAseH = experiment: Oligonucleotide-directed RNAseH cleavage assay, HBV genotype H; format: biochemical, Hepatitis B virus; conditions: 10 μM; for Residual activity at 10 uM, Genotype H: ± standard deviation, 3 to 7 replicates
# Procedure: as §1
# (§2) Oligonucleotide-directed RNAseH cleavage assays (Gong et al., 2001) were performed as described (Tavis et al., 2013). Briefly, HBV RNAseH extracts were mixed with a 264 nt-long internally ^32P-labeled RNA plus an excess of a complementary DNA oligonucleotide or its inverse-complement as a negative control in a final concentration of 65 mM Tris pH 8.0, 190 mM NaCl, 5 mM MgCl2, 5 mM dTT, 0.05% NP40, and 6% glycerol. βTJ was dissolved in DMSO and added at the indicated concentrations; the final concentration of DMSO in all reactions was 1%. The reactions were incubated at 42° C. for 90 min. and terminated by addition of Laemmli protein electrophoresis buffer. The samples were resolved by SDS-PAGE, labeled RNA was detected by autoradiography, the autoradiograms were scanned, and the RNA cleavage products were quantified with ImageJ (National Institutes of Health). IC50 values were calculated by non-linear regression using GraphPad Prism (GraphPad Software, Inc.).
# [2] = biological target: T2, HBV genotype D RNAseH (HRHPL) (Hepatitis B virus genotype D subtype ayw, UniProt P03156, INS679M); experiment: Oligonucleotide-directed RNAseH cleavage assay, HBV genotype D; format: biochemical; conditions: for Residual activity at 10 uM, Genotype D: ± standard deviation, 3 to 7 replicates; for Activity vs. HBV Biochemical vs. gtD: class by concentration giving inhibition (10, 20, 60 μM)
# T2 construct: HRHPL contains HBV genotype D (Genbank V01460) polymerase residues 684-845; made in house; host or cells: E. coli BL21 codon+
# T2 sequence (P03156 680-832, added parts left off, stated change not applied): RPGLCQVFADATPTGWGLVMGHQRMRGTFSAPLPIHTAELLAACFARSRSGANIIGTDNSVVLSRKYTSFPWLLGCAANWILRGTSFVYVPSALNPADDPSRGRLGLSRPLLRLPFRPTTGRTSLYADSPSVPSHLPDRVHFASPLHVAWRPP
# Procedure: For the oligonucleotide-directed RNAseH cleavage assay (Gong et al., 2001), 6 μl protein extract (typical protein concentration 2.8 mg/ml) was mixed with 0.5 μg internally ^32P-labeled DRF+ RNA (nucleotides 2401-2605 of the duck HBV genome plus 60 nucleotides of flanking sequences from pBluescript) and 3 μg oligonucleotide D2507- or its corresponding negative control D2526+ on ice in 20 μl under the conditions in Table 1. Some reactions in FIG. 5 employed oligonucleotide D2543M-Sal or its D2453+ negative control as indicated. The reactions were incubated at 42° C. for 90 min. and terminated by addition of Laemmli protein loading buffer and boiling. The samples were resolved by 12% SDS-PAGE, the gels were stained with Coomassie blue to monitor protein loading, and labeled RNA was detected by autoradiography. Candidate inhibitors were dissolved in DMSO and added at the indicated concentrations during assembly of the reactions. Control reactions lacking the compounds contained DMSO as a vehicle control. The RNAseH autoradiograms were scanned and quantified with ImageJ.
# as §2
# human RNAseH1 = biological target: T3, human RNAseH1 (Homo sapiens, UniProt O60930); experiment: Oligonucleotide-directed RNAseH assay, recombinant human RNAseH1; format: biochemical; conditions: class by concentration giving inhibition (10, 20, 60 μM)
# T3 construct: hexahistidine (N); made in house; host or cells: E. coli BL21 codon+
# T3 sequence (O60930 1-286): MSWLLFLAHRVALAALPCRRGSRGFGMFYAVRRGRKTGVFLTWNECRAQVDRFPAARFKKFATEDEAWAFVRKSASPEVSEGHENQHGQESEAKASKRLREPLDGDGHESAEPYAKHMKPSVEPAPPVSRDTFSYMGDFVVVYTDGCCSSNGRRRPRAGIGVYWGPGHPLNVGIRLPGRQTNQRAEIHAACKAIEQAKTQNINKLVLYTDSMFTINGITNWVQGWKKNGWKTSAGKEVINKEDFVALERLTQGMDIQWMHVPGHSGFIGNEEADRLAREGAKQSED
# Procedure: as §1
# Therefore, the inventors cloned the human RNAseH1 with an N-terminal hexahistidine tag, expressed it in E. coli, and purified the protein by nickel affinity chromatography. […] This enzyme was active in the oligonucleotide-directed and fluorescent RNAseH assays (FIG. 10B and data not shown). To determine how inhibition of human RNAseH1 compared to inhibition of the HBV RNAseH, the inventor titrated the RNAaseH1 enzyme to yield similar levels of activity as the HBV enzyme, and then the inventor directly compared the ability of compounds #8-12 to inhibit human RNAseH1 and HRHPL at 10 μM. […] Therefore, it is possible to inhibit the HBV RNAseH without inhibiting human RNAseH1.
# as §2
SMILES,Activity vs. HBV Genomic Replication (HBV),"Residual activity at 10 uM, HHC1 [1] [Percent DMSO control]","Residual activity at 10 uM, Genotype H (HBV genotype H RNAseH) [Percent DMSO control]","Residual activity at 10 uM, Genotype D [2] [Percent DMSO control]",Activity vs. HBV Biochemical vs. gtD [2],Activity vs. human RNAseH1 (human RNAseH1),Inhibition of HBV genotype H RNAseH (HBV genotype H RNAseH; below threshold of irrelevant controls)
CC(Cc1ccc(O)c(O)c1)C(C)Cc1ccc(O)c(O)c1 (centres unmarked) [Compound 2],− (− no activity at 60 μM),35 ± 6,67 ± 20,54 ± 18,− (− no inhibition at 60 μM),–,–
NC(=O)c1c(N)sc2c1CCCCC2 [Compound 3],− (− no activity at 60 μM),60 ± 19,68 ± 14,43 ± 14,− (− no inhibition at 60 μM),–,–
COC(=O)Oc1nsnc1N1CCOCC1 [Compound 4],− (− no activity at 60 μM),37 ± 5,68 ± 18,35 ± 6,+ (+ inhibition at 60 μM),–,–
COc1ccc2ccccc2c1C=NNC(=O)c1ccc(O)c(O)c1 [Compound 13],− (− no activity at 60 μM),65 ± 14,42 ± 26,52 ± 12,− (− no inhibition at 60 μM),–,–
O=C(O)c1ccc(-c2cccc(C=NNC(=O)c3cc(O)c(O)c(O)c3)c2)cc1 [Compound 15],− (− no activity at 60 μM),68 ± 6,37 ± 23,47 ± 4,− (− no inhibition at 60 μM),–,–
CCOC(=O)c1sc(NC(=O)CSc2nnc[nH]2)c(C#N)c1C [Compound 28],–,–,–,–,− (− no inhibition at 60 μM),+ (+ inhibition at 60 μM),–
O=c1cc2oc3cc(O)c(O)cc3c(-c3ccccn3)c-2cc1O [Compound 39],–,60 ± 24,26 ± 0,21 ± 2,–,–,inhibited
"Cc1cc(C2CCCCC2)n(O)c(=O)c1 [Compound 41, Ciclopirox, reference compound]",–,–,–,–,− (− no inhibition at 60 μM),+ (+ inhibition at 60 μM),–
CCOC(=O)c1cc2ccccc2n(O)c1=O [Compound 42],–,–,–,–,− (− no inhibition at 60 μM),+ (+ inhibition at 60 μM),–
Cc1cc(C)n(O)c(=O)c1C#N [Compound 44],–,–,–,–,− (− no inhibition at 60 μM),− (− no inhibition at 60 μM),–
"CC(C)=CCc1ccc(O)c(=O)cc1C(C)C [Compound 49, Nootkatin]",–,–,–,–,++ (++ inhibition at 20 μM),− (− no inhibition at 60 μM),–
"O=Nc1ccc(O)c(=O)cc1 [Compound 50, 5-nitrosotropolone]","+ (+, activity detectable at >10 μM)",–,–,–,++ (++ inhibition at 20 μM),− (− no inhibition at 60 μM),–
O=C(Nc1ccc(O)c(=O)cc1)c1ccccc1 [Compound 52],–,–,–,–,− (− no inhibition at 60 μM),− (− no inhibition at 60 μM),–
CC(=O)NC(CCc1ccc(Cl)c(Cl)c1)c1cccc(O)c(=O)c1 (centres unmarked) [Compound 55],–,–,–,–,+ (+ inhibition at 60 μM),+ (+ inhibition at 60 μM),–
Cc1cc(C)c(OC(=O)c2ccc(Cl)cc2)c(=O)c(C)c1 [Compound 59],–,–,–,–,− (− no inhibition at 60 μM),+ (+ inhibition at 60 μM),–
Cc1ccc(S(=O)(=O)Oc2cccccc2=O)cc1 [Compound 61],–,–,–,–,− (− no inhibition at 60 μM),++ (++ inhibition at 20 μM),–
